{"source": "patent US5962636A", "about": "“Peptides capable of modulating inflammatory heart disease” (priority 1998, dated 1999)", "system": "Balb/c mice", "assay": "Oligodeoxynucleotides as adjuvants: immunization with M7A-alpha peptide plus oligo; presence and severity of inflammatory heart disease", "type": "in vivo", "details": "for Prevalence / Severity: day 21; for immunostimulatory / adjuvant activity: result in words, with M7A-alpha peptide, in the absence of Freund's complete adjuvant; for Severity: score ± SD, scale as in Example 1, adjuvant given with M7A-alpha peptide", "key": {"[1]": {"details": "adjuvant given with about 50 micrograms M7A-alpha peptide, days 0 and 7, oligos about 10 nmol with Freund's incomplete adjuvant"}}}
{"sequence": "GTACTGACGTTTACTCTTGG (chemistry not given here) [CpG, oligonucleotide with CpG motif derived from DNA encoding a 60 kDa cysteine rich outer membrane protein from Chlamydia trachomatis]", "values": [{"measurement": "Prevalence", "setting": "about 10 nmol oligo without peptide (Peptide: None)", "result": "0/5"}, {"measurement": "Prevalence", "setting": "[1]", "result": "5/5"}, {"measurement": "immunostimulatory / adjuvant activity", "result": "potent immunostimulator"}, {"measurement": "Severity", "result": "1.2 ± 0.4"}]}
{"sequence": "GTACTGAGCTTTACTCTTGG (chemistry not given here) [non-CpG, counterpart of the CpG oligo not containing the CpG motif, reference compound]", "values": [{"measurement": "Prevalence", "setting": "[1]", "result": "1/5"}, {"measurement": "immunostimulatory / adjuvant activity", "result": "hardly effective as an adjuvant"}, {"measurement": "Severity", "result": "1.0 ± 0.0"}]}
